The record followed here is patent publication US11731943B2, “Therapeutic compounds, compositions and methods of use thereof” (priority 2016, dated 2023).

The subject of experiment [1] is JAK1-dependent STAT6 phosphorylation downstream of IL-13 stimulation in BEAS-2B human bronchial epithelial cells. The experiment can be described thus: JAK1 pathway assay in BEAS-2B cells (IL-13-pSTAT6, MSD). Format: cell-based. The conditions noted are these: BEAS-2B cells, IL-13 stimulation, read-out: IL-13 p-STAT6 BEAS-2B IC50.
Experiment [2] has as its target isolated recombinant JAK2 kinase domain (Homo sapiens (Human), UniProt O60674). The experiment can be described thus: JAK2 enzyme assay (Caliper LabChip, Ki). Format: biochemical. Put shortly:
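Recombinant human JAK1 or JAK2 kinase domain phosphorylating a 5-carboxyfluorescein-labelled JAK3-derived peptide; 30 min at 22 °C, stopped with EDTA (50 mM final). Phosphorylated product measured as a fraction of total peptide by Caliper LabChip mobility shift.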

For experiment [3], the target named is isolated recombinant JAK1 kinase domain (Homo sapiens (Human), UniProt P23458). The experiment can be described thus: JAK1 enzyme assay (Caliper LabChip, Ki). It is filed as biochemical. Put shortly: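 Recombinant human JAK1 kinase domain phosphorylating an N-terminally 5-carboxyfluorescein-labelled JAK3-derived peptide, 30 min at 22 °C, stopped with EDTA (50 mM final). Phosphorylated fraction of total peptide read by Caliper LabChip mobility shift; Ki from Morrison tight-binding fit corrected for ATP competition (Ki=Ki,app/(1+[ATP]/Km,app)).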
Sequence of isolated recombinant JAK1 kinase domain (P23458 875-1153): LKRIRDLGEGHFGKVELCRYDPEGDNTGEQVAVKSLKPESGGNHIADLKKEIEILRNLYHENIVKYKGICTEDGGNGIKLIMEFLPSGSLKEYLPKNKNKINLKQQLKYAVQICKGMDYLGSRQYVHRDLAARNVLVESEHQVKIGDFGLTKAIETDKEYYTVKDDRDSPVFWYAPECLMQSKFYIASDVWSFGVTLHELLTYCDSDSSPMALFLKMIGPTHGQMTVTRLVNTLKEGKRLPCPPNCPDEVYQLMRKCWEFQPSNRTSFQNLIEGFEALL

Read-outs that look alike come from different tables or passages of the source.

Sequence of isolated recombinant JAK2 kinase domain (O60674 849-1124): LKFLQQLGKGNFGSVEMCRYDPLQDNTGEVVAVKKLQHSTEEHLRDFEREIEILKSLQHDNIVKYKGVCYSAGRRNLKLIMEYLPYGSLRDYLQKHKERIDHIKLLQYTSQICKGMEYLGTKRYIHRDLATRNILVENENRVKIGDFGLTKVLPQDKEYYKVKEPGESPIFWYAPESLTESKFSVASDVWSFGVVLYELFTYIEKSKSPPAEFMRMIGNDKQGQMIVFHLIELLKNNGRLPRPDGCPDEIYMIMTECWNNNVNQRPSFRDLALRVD

As for `N#CCC1(n2cc(C(N)=O)c(NC(=O)C3CC3C#N)n2)CCN(Cc2ccc(-c3ccccc3)cc2F)CC1F` (stereo not drawn) [Example 219, 3-[(2-cyanocyclopropanecarbonyl)amino]-1-[4-(cyanomethyl)-3-fluoro-1-[(2-fluoro-4-phenyl-phenyl)methyl]-4-piperidyl]pyrazole-4-carboxamide], in experiment [1], the half-inhibitory concentration (IC50) stood at 68 nM. The inhibition constant (Ki) came to 3.6 nM in experiment [2] and 1.7 nM in experiment [3] (read-out: JAK1 Ki).

For the molecule `Cc1ccc(-c2ccc(CN3CCC(CC#N)(n4cc(C(N)=O)c(NC(=O)C5CC5)n4)C(F)C3)cc2)o1` (stereo not drawn) [Example 223, 1-[4-(cyanomethyl)-3-fluoro-1-[[4-(5-methyl-2-furyl)phenyl]methyl]-4-piperidyl]-3-(cyclopropanecarbonylamino) pyrazole-4-carboxamide], the IC50 in experiment [1] (Homo sapiens, BEAS-2B) stood at 12 nM. Besides, the Ki is 0.34 nM in experiment [2] and 0.38 nM in experiment [3] (read-out: JAK1 Ki).

As to `C=Cc1ccc(CN2CCC(CC#N)(n3cc(C(N)=O)c(NC(=O)OC)n3)C(F)C2)cc1O` (stereo not drawn) [Example 284, methyl N-[4-carbamoyl-1-[4-(cyanomethyl)-3-fluoro-1-[(3-hydroxy-4-vinyl-phenyl)methyl]-4-piperidyl]pyrazol-3-yl]carbamate], the IC50 in experiment [1] (Homo sapiens, BEAS-2B) amounted to 48 nM. In addition, the figures for the Ki in experiment [2] and in experiment [3] (read-out: JAK1 Ki) were 0.5 nM and 0.3 nM, respectively.

As to `COC(=O)Nc1nn(C2(CC#N)CCN(CC3CCC(c4ccccc4)CC3)CC2F)cc1C(N)=O` (stereo not drawn) [Example 236, methyl N-[4-carbamoyl-1-[4-(cyanomethyl)-3-fluoro-1-[(4-phenylcyclohexyl)methyl]-4-piperidyl]pyrazol-3-yl]carbamate], the IC50 in experiment [1] came to 19 nM. The inhibition constant (Ki) turned out to be 1.4 nM in experiment [2] and 0.21 nM in experiment [3] (read-out: JAK1 Ki).

`Cc1c(CN2CCC(CC#N)(n3cc(C(N)=O)c(NC(=O)C4CC4)n3)C(F)C2)ccc(-c2ccccc2)c1O` (stereo not drawn) [Example 213, 1-[4-(cyanomethyl)-3-fluoro-1-[(3-hydroxy-2-methyl-4-phenyl-phenyl)methyl]-4-piperidyl]-3-(cyclopropanecarbonylamino) pyrazole-4-carboxamide]: the IC50 in experiment [1] (Homo sapiens, BEAS-2B) was 22 nM. In addition, the inhibitory constant (Ki) in experiment [2] is 0.28 nM; in experiment [3] (read-out: JAK1 Ki) it was 0.37 nM.

Turning to `N#CC[C@]1(n2cc(C(N)=O)c(NC(=O)C3CC3)n2)CC[C@H](N2CC3(CCC3)C2)CC1` [Example 107], the IC50 in experiment [1] (Homo sapiens, BEAS-2B) is over 1000 nM. In addition, the values for the inhibitory constant (Ki) in experiment [2] and in experiment [3] were 43.1 nM and 3.3 nM, respectively.

In the case of `COC(=O)Nc1nn(C2(CC#N)CCN(Cc3ccc(C4=CCCC4)nc3F)CC2F)cc1C(N)=O` (stereo not drawn) [Example 272, methyl N-[4-carbamoyl-1-[4-(cyanomethyl)-1-[[6-(cyclopenten-1-yl)-2-fluoro-3-pyridyl]methyl]-3-fluoro-4-piperidyl]pyrazol-3-yl]carbamate], the concentration for half-maximal inhibition (IC50) in experiment [1] (Homo sapiens, BEAS-2B) was determined as 67 nM. The Ki stood at 1.6 nM in experiment [2] and 0.68 nM in experiment [3] (read-out: JAK1 Ki).

On to `CS(=O)(=O)Nc1cccc(CN2CCC(CC#N)(n3cc(C(N)=O)c(NC(=O)C4CC4)n3)CC2)c1F` [Example 78], for which the IC50 in experiment [1] (Homo sapiens, BEAS-2B) is over 1000 nM. The inhibition constant (Ki) turned out to be 4.9 nM in experiment [2] and 2.9 nM in experiment [3] (read-out: JAK1 Ki).

In the case of `Cc1c(CN2CCC(CC#N)(n3cc(C(N)=O)c(NC(=O)C4CC4)n3)CC2)ccc(-c2ccccc2)c1O` [Example 194, 1-[4-(cyanomethyl)-1-[(3-hydroxy-2-methyl-4-phenyl-phenyl)methyl]-4-piperidyl]-3-(cyclopropanecarbonylamino) pyrazole-4-carboxamide], in experiment [1] (Homo sapiens, BEAS-2B), the IC50 turned out to be 50 nM. The inhibitory constant (Ki) in experiment [2] came to 2.2 nM; in experiment [3] (read-out: JAK1 Ki) it was 0.63 nM.

With `N#CCC1(n2cc(C(N)=O)c(NC(=O)C3CC3)n2)CCC(Nc2ccc(-c3ccco3)cc2)CC1` (stereo not drawn) [Example 276, 1-[1-(cyanomethyl)-4-[4-(2-furyl)anilino]cyclohexyl]-3-(cyclopropanecarbonylamino) pyrazole-4-carboxamide], the half-inhibitory concentration (IC50) in experiment [1] (Homo sapiens, BEAS-2B) amounted to 9 nM. The Ki in experiment [2] stood at 2.2 nM; in experiment [3] (read-out: JAK1 Ki) it was 0.25 nM.

With `N#CCC1(n2cc(C(N)=O)c(NC(=O)C3CC3)n2)CCC(Nc2ccccc2Cl)CC1` (stereo not drawn) [Example 290, 1-[4-(2-chloroanilino)-1-(cyanomethyl)cyclohexyl]-3-(cyclopropanecarbonylamino) pyrazole-4-carboxamide], the 50% inhibitory concentration (IC50) in experiment [1] (Homo sapiens, BEAS-2B) came to 82 nM. For the same molecule, the values for the Ki in experiment [2] and in experiment [3] (read-out: JAK1 Ki) were 13 nM and 1.1 nM, respectively.

Take `N#CCC1(n2cc(C(N)=O)c(NC(=O)C3CC3)n2)CCN(Cc2ccc(-n3cccn3)cc2)CC1` [Example 87]: the half-inhibitory concentration (IC50) in experiment [1] (Homo sapiens, BEAS-2B) was 350 nM. Moreover, the inhibition constant (Ki) worked out at 25.1 nM in experiment [2] and 2.2 nM in experiment [3] (read-out: JAK1 Ki).

On to `N#CCC1(n2cc(C(N)=O)c(NC(=O)C3CC3)n2)CCN(Cc2ccc(-c3ccccc3)c(Cl)c2)CC1` [Example 163, 1-[1-[(3-chloro-4-phenyl-phenyl)methyl]-4-(cyanomethyl)-4-piperidyl]-3-(cyclopropanecarbonylamino) pyrazole-4-carboxamide], for which, in experiment [1] (Homo sapiens, BEAS-2B), the 50% inhibitory concentration (IC50) was 103 nM. In addition, the Ki was determined as 18.5 nM in experiment [2] and 2.1 nM in experiment [3] (read-out: JAK1 Ki).

Take `N#CCC1(n2cc(C(N)=O)c(NC(=O)C3CC3)n2)CCN(Cc2ccc(Br)cc2)CC1` [Example 52]: in experiment [1] (Homo sapiens, BEAS-2B), the 50% inhibitory concentration (IC50) was determined as 102 nM. Besides, the inhibitory constant (Ki) in experiment [2] turned out to be 20.9 nM; in experiment [3] (read-out: JAK1 Ki) it was 2.3 nM.

Consider `C#Cc1ccc(CN2CCC(CC#N)(n3cc(C(N)=O)c(NC(=O)C4CC4)n3)C(F)C2)cc1` (stereo not drawn) [Example 260, 1-[4-(cyanomethyl)-1-[(4-ethynylphenyl)methyl]-3-fluoro-4-piperidyl]-3-(cyclopropanecarbonylamino) pyrazole-4-carboxamide], for which, in experiment [1] (Homo sapiens, BEAS-2B), the IC50 turned out to be 32 nM. Further, the inhibition constant (Ki) in experiment [2] is 0.35 nM; in experiment [3] (read-out: JAK1 Ki) it was 0.25 nM.

On to `COC(=O)Nc1nn(C2(CC#N)CCN(Cc3ccc(-c4ccc(C)o4)cc3)CC2F)cc1C(N)=O` (stereo not drawn) [Example 246, methyl N-[4-carbamoyl-1-[4-(cyanomethyl)-3-fluoro-1-[[4-(5-methyl-2-furyl)phenyl]methyl]-4-piperidyl]pyrazol-3-yl]carbamate], for which, in experiment [1] (Homo sapiens, BEAS-2B), the IC50 is 19 nM. For the same molecule, the inhibition constant Ki in experiment [2] came to 0.52 nM; in experiment [3] (read-out: JAK1 Ki), 0.35 nM.

As for `COC(=O)Nc1nn(C2(CC#N)CCN(Cc3ccc(C4=CCCCC4)cc3)CC2F)cc1C(N)=O` (stereo not drawn) [Example 257, methyl N-[4-carbamoyl-1-[4-(cyanomethyl)-1-[[4-(cyclohexen-1-yl)phenyl]methyl]-3-fluoro-4-piperidyl]pyrazol-3-yl]carbamate], the concentration for half-maximal inhibition (IC50) in experiment [1] (Homo sapiens, BEAS-2B) turned out to be 52 nM. In addition, the values for the inhibition constant (Ki) in experiment [2] and in experiment [3] (read-out: JAK1 Ki) were 1.3 nM and 0.73 nM, respectively.

Take `N#CCC1(n2cc(C(N)=O)c(NC(=O)C3CC3)n2)CCN(Cc2ccc(-c3cccc(CO)c3)cc2)CC1` [Example 156, 1-[4-(cyanomethyl)-1-[[4-[3-(hydroxymethyl)phenyl]phenyl]methyl]-4-piperidyl]-3-(cyclopropanecarbonylamino) pyrazole-4-carboxamide]: the 50% inhibitory concentration (IC50) in experiment [1] (Homo sapiens, BEAS-2B) was 209 nM. For the same molecule, the inhibition constant Ki in experiment [2] is 4.3 nM; in experiment [3] (read-out: JAK1 Ki) it was 0.6 nM.

Turning to `CCc1ccc(-c2ccc(CN3CCC(CC#N)(n4cc(C(N)=O)c(NC(=O)C5CC5C#N)n4)C(F)C3)cc2O)cc1` (stereo not drawn) [Example 221, 3-[(2-cyanocyclopropanecarbonyl)amino]-1-[4-(cyanomethyl)-1-[[4-(4-ethylphenyl)-3-hydroxy-phenyl]methyl]-3-fluoro-4-piperidyl]pyrazole-4-carboxamide], the IC50 in experiment [1] (Homo sapiens, BEAS-2B) was 90 nM. Moreover, the Ki in experiment [2] was determined as 1.7 nM; in experiment [3] (read-out: JAK1 Ki), 0.3 nM.
